Measurements taken from PubChem BioAssay AID248 (DTP/NCI, 2004).
Several values for one entry are separate records, joined by “and”; a condition that tells them apart may be missing. Equal entries are not always repeated. Inconclusive results and toxic doses are left out. Rule as the data show it: active = T/C of 150% or more; inactive = T/C below 125%.

Tested on: L1210 leukemia ip in BDF1 mice, survival T/C
Assay: NCI In Vivo Anticancer Drug Screen. Data for tumor model L1210 Leukemia (intraperitoneal) in B6D2F1 (BDF1) mice
Conditions: endpoint: mean survival time, higher = longer survival
In short: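 Each compound was tested against a transplantable tumor grown in mice. The endpoint was survival, with treated animals benchmarked against vehicle controls as a simple ratio.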

[1] = dose: 100.0 mg/kg/injection, schedule: Q01DX009 (ip), vehicle: Klucel (hydroxypropylcellulose) (HPC)
[2] = dose: 100.0 mg/kg/injection, schedule: Q04DX003 (ip), vehicle: Klucel (hydroxypropylcellulose) (HPC)
[3] = dose: 200.0 mg/kg/injection, schedule: Q01DX009 (ip), vehicle: Klucel (hydroxypropylcellulose) (HPC)
[4] = dose: 200.0 mg/kg/injection, schedule: Q04DX003 (ip), vehicle: Klucel (hydroxypropylcellulose) (HPC)
[5] = dose: 400.0 mg/kg/injection, schedule: Q01DX009 (ip), vehicle: Klucel (hydroxypropylcellulose) (HPC)
[6] = dose: 400.0 mg/kg/injection, schedule: Q04DX003 (ip), vehicle: Klucel (hydroxypropylcellulose) (HPC)
[7] = dose: 200.0 mg/kg/injection, schedule: Q01DX001 (ip), vehicle: Klucel (hydroxypropylcellulose) (HPC)
[8] = dose: 400.0 mg/kg/injection, schedule: Q01DX001 (ip), vehicle: Klucel (hydroxypropylcellulose) (HPC)
[9] = dose: 75.0 mg/kg/injection, schedule: Q01DX001 (ip), vehicle: other
[10] = dose: 150.0 mg/kg/injection, schedule: Q01DX001 (ip), vehicle: other
[11] = dose: 300.0 mg/kg/injection, schedule: Q01DX001 (ip), vehicle: other
[12] = dose: 100.0 mg/kg/injection, schedule: Q01DX009 (ip), vehicle: saline with Tween-80
[13] = dose: 200.0 mg/kg/injection, schedule: Q01DX009 (ip), vehicle: saline with Tween-80
[14] = dose: 400.0 mg/kg/injection, schedule: Q01DX009 (ip), vehicle: saline with Tween-80
[15] = dose: 50.0 mg/kg/injection, schedule: Q01DX001 (ip), vehicle: carboxymethylcellulose (CMC)
[16] = dose: 100.0 mg/kg/injection, schedule: Q01DX001 (ip), vehicle: Klucel (hydroxypropylcellulose) (HPC)
[17] = dose: 100.0 mg/kg/injection, schedule: Q01DX001 (ip), vehicle: saline
[18] = dose: 200.0 mg/kg/injection, schedule: Q01DX001 (ip), vehicle: saline
[19] = dose: 400.0 mg/kg/injection, schedule: Q01DX001 (ip), vehicle: saline
[20] = dose: 100.0 mg/kg/injection, schedule: Q04DX003 (ip), vehicle: saline with Tween-80
[21] = dose: 200.0 mg/kg/injection, schedule: Q04DX003 (ip), vehicle: saline with Tween-80
[22] = dose: 400.0 mg/kg/injection, schedule: Q04DX003 (ip), vehicle: saline with Tween-80
[23] = dose: 100.0 mg/kg/injection, schedule: Q01DX009 (ip), vehicle: saline
[24] = dose: 200.0 mg/kg/injection, schedule: Q01DX009 (ip), vehicle: saline
[25] = dose: 400.0 mg/kg/injection, schedule: Q01DX009 (ip), vehicle: saline

Measured: T/C

CC(O)COCCOCCO (configuration not stated)
inactive: dose: 100.0 mg/kg/injection, schedule: Q04DX003 (ip), vehicle: saline 96 % of control | dose: 200.0 mg/kg/injection, schedule: Q04DX003 (ip), vehicle: saline 99 % of control | dose: 400.0 mg/kg/injection, schedule: Q04DX003 (ip), vehicle: saline 94 % of control

CC1(C)CC(=O)c2c(cc(O)c3ccc(=O)oc23)O1
inactive: [1] 96 % of control | [2] 100 % of control | [3] 98 % of control | [4] 104 % of control | [5] 91 % of control | [6] 96 % of control

C[N+](C)(Cc1ccc(F)cc1)C1c2ccccc2-c2ccccc21
inactive: dose: 6.25 mg/kg/injection, schedule: Q04DX003 (ip), vehicle: saline with Tween-80 90 % of control | dose: 25.0 mg/kg/injection, schedule: Q04DX003 (ip), vehicle: saline with Tween-80 89 % of control

Oc1ccc2ccnc(Cc3ccc(Br)cc3)c2c1
inactive: [7] 89 % of control | [8] 89 % of control

O=C(O)c1cc([N+](=O)[O-])c(C(=O)O)c([N+](=O)[O-])c1
inactive: [9] 94 % of control | [10] 95 % of control | [11] 96 % of control

CC(CCC(C)C(=O)O)C(=O)O (configuration not stated)
inactive: [12] 103 % of control | [13] 102 % of control | [14] 103 % of control

C=CCOP(=O)(OCC=C)c1ccccc1
inactive: dose: 55.0 mg/kg/injection, schedule: Q01DX Z (ip), vehicle: methylcellulose (MC) 89 % of control | dose: 83.0 mg/kg/injection, schedule: Q01DX Z (ip), vehicle: methylcellulose (MC) 98 % of control | dose: 125.0 mg/kg/injection, schedule: Q01DX Z (ip), vehicle: methylcellulose (MC) 93 % of control

CCCCCCN(CCCCCC)C1=C(Cl)C(=O)c2ccccc2C1=O
inactive: dose: 12.5 mg/kg/injection, schedule: Q01DX001 (ip), vehicle: carboxymethylcellulose (CMC) 97 % of control | dose: 25.0 mg/kg/injection, schedule: Q01DX001 (ip), vehicle: carboxymethylcellulose (CMC) 103 % of control | [15] 96 % of control

Cc1nccnc1S(=O)(=O)c1ccc2ccccc2c1
inactive: [16] 101 % of control | [7] 97 % of control

CC12CC=C3c4ccc(S)cc4CCC3C1CCC2=O (configuration not stated)
inactive: dose: 100.0 mg/kg/injection, schedule: Q01DX001 (ip), vehicle: saline with Tween-80 96 % of control | dose: 200.0 mg/kg/injection, schedule: Q01DX001 (ip), vehicle: saline with Tween-80 89 % of control | dose: 400.0 mg/kg/injection, schedule: Q01DX001 (ip), vehicle: saline with Tween-80 89 % of control

CCOc1c[n+](C)c(/C=C/c2ccccc2)s1
inactive: dose: 5.0 mg/kg/injection, schedule: Q01DX001 (ip), vehicle: carboxymethylcellulose (CMC) 108 % of control | dose: 10.0 mg/kg/injection, schedule: Q01DX001 (ip), vehicle: carboxymethylcellulose (CMC) 97 % of control | dose: 20.0 mg/kg/injection, schedule: Q01DX001 (ip), vehicle: carboxymethylcellulose (CMC) 94 % of control | dose: 40.0 mg/kg/injection, schedule: Q01DX001 (ip), vehicle: carboxymethylcellulose (CMC) 103 % of control

CC(=O)c1ccc(NC(=O)c2ccc(C(=O)Nc3ccc(C(C)=O)cc3)cc2)cc1
inactive: [17] 100 % of control | [18] 96 % of control | [19] 102 % of control

CCCc1nc2ccccc2c(=O)n1/N=C/c1ccc(Cl)cc1
inactive: [1] 98 % of control | [3] 88 % of control | [5] 93 % of control

CCOC(=O)NN(C(=O)OCC)c1c(NN)n(C)c(=O)n(C)c1=O
inactive: dose: 75.0 mg/kg/injection, schedule: Q04DX003 (ip), vehicle: saline 107 % of control | dose: 150.0 mg/kg/injection, schedule: Q04DX003 (ip), vehicle: saline 93 % of control | dose: 300.0 mg/kg/injection, schedule: Q04DX003 (ip), vehicle: saline 91 % of control

Cc1ccccc1OP(=O)(Oc1ccccc1C)Oc1ccccc1C
inactive: [15] 104 % of control | dose: 100.0 mg/kg/injection, schedule: Q01DX001 (ip), vehicle: carboxymethylcellulose (CMC) 101 % of control | dose: 200.0 mg/kg/injection, schedule: Q01DX001 (ip), vehicle: carboxymethylcellulose (CMC) 95 % of control | dose: 400.0 mg/kg/injection, schedule: Q01DX001 (ip), vehicle: carboxymethylcellulose (CMC) 93 % of control

COC(=O)C1C(O)CCC2CN3CCc4c([nH]c5ccccc45)C3CC21 (configuration not stated)
inactive: dose: 50.0 mg/kg/injection, schedule: Q01DX001 (ip), vehicle: saline 102 % of control | dose: 75.0 mg/kg/injection, schedule: Q01DX Z (ip), vehicle: carboxymethylcellulose (CMC) 92 % of control | [17] 91 % of control | dose: 150.0 mg/kg/injection, schedule: Q01DX Z (ip), vehicle: carboxymethylcellulose (CMC) 100 % of control

CC12CCC(C1)C(C)(C)C2C(N)=O (configuration not stated)
inactive: [2] 93 % of control | [4] 93 % of control

Cc1ccccc1-c1nc2cc(Cl)ccc2c(=O)o1
inactive: dose: 25.0 mg/kg/injection, schedule: Q01DX009 (ip), vehicle: saline with Tween-80 98 % of control | dose: 50.0 mg/kg/injection, schedule: Q01DX009 (ip), vehicle: saline with Tween-80 88 % of control | [12] 96 % of control | [20] 100 % of control | [21] 102 % of control | [22] 108 % of control

CCOP(OCC)SSCn1nc2ccc3ccccc3n2c1=O
inactive: dose: 50.0 mg/kg/injection, schedule: Q01DX009 (ip), vehicle: Klucel (hydroxypropylcellulose) (HPC) 101 % of control

NOC(=O)C(O)(c1ccccc1)C1CCCCC1 (configuration not stated)
inactive: [9] 104 % of control | [10] 98 % of control | [11] 98 % of control

N#CCCN(C(=S)Nc1cccc(C(F)(F)F)c1)C1CCCCC1
inactive: [16] 96 % of control | [1] 107 % of control and 108 % of control | dose: 100.0 mg/kg/injection, schedule: Q04DX002 (ip), vehicle: Klucel (hydroxypropylcellulose) (HPC) 102 % of control and 104 % of control | [2] 98 % of control | [7] 90 % of control | [3] 101 % of control and 107 % of control | dose: 200.0 mg/kg/injection, schedule: Q04DX002 (ip), vehicle: Klucel (hydroxypropylcellulose) (HPC) 108 % of control and 114 % of control | [4] 97 % of control | [8] 98 % of control | [5] 96 % of control and 112 % of control | dose: 400.0 mg/kg/injection, schedule: Q04DX002 (ip), vehicle: Klucel (hydroxypropylcellulose) (HPC) 100 % of control and 101 % of control | [6] 97 % of control

CCCCCCCOC(C[N+](=O)[O-])C(Cl)(Cl)Cl (configuration not stated)
inactive: dose: 25.0 mg/kg/injection, schedule: Q01DX009 (ip), vehicle: acetone 95 % of control | dose: 50.0 mg/kg/injection, schedule: Q01DX009 (ip), vehicle: acetone 93 % of control | dose: 100.0 mg/kg/injection, schedule: Q04DX003 (ip), vehicle: acetone 99 % of control

O=c1cc(CO)occ1O
inactive: [12] 93 % of control | [23] 92 % of control | [13] 90 % of control | [24] 106 % of control | [14] 92 % of control | [25] 97 % of control

O=C1C=CC(=O)C(SCCCSC2=CC(=O)C(SCCCSC3=CC(=O)C=CC3=O)=CC2=O)=C1
inactive: [17] 92 % of control | [18] 92 % of control | [19] 101 % of control

C/C=C/C(=O)C12CCCCCCCCCC(=C1N1CCCCC1)C(=O)CC2C (configuration not stated)
inactive: [17] 93 % of control | [23] 90 % of control | [18] 98 % of control | [24] 92 % of control | [19] 98 % of control | [25] 98 % of control

CCC(C)(N)C(=O)O (configuration not stated)
inactive: [17] 102 % of control | [18] 106 % of control | [19] 102 % of control

NC(=O)c1ccccc1NC(=O)Nc1ccc([N+](=O)[O-])cc1Cl
inactive: [12] 98 % of control | [20] 95 % of control | [13] 102 % of control | [21] 96 % of control | [14] 98 % of control | [22] 95 % of control
